Measurements from US20230233576A1, “ECLITASERTIB FOR USE IN TREATING CONDITIONS INVOLVING SYSTEMIC HYPERINFLAMMATORY RESPONSE” (priority 2020, published 2023).

System: adult participants hospitalized for severe COVID-19
Test: Phase 1b severe COVID-19 study: adverse events and deaths
Format: in vivo, human
From the text: Safety evaluation was based on adverse events (Aes) including serious adverse events (SAEs) and adverse events of special interest (AESIs) (i.e., pregnancy, symptomatic overdose with IMP. Alanine aminotransferase [ALT] increase, and anemia), and treatment-emergent adverse events (TEAEs) leading to treatment discontinuation.
The primary focus of AE reporting was on treatment emergent adverse events (TEAEs). Treatment emergent adverse events were Aes that were not present at baseline or represented the exacerbation of a pre-existing condition during the on-treatment period (treatment-emergent period), defined as the time from the first administration of the IMP up to and including the day of last dose of study drug plus 5 days.
All adverse events were coded to a “preferred term (PT)”, “high-level term (HLT)”, “high-level group term (HLGT)”, and associated primary SOC using Medical Dictionary for Regulatory Activities (MedDRA) version 23.1.
The number and cumulative incidence rate of deaths [%] during the on-study period were computed by treatment group: number of deaths divided by the number of participants. Kaplan-Meier plot for time to death was presented by treatment group.

[1] = 600 mg (N = 47), Safety population
[2] = 600 mg (N = 47), Safety population, corresponds to worsening of COVID-19
[3] = 600 mg, Safety population (N = 47)
[4] = 600 mg, Study day 0, Safety population
[5] = 600 mg, Study day 13, Safety population
[6] = 600 mg, Study day 15, Safety population
[7] = 600 mg, Study day 27, Safety population
[8] = 600 mg, Study day 28, Safety population
[9] = 600 mg, Study day 29, Safety population
[10] = 600 mg, Study day 30, Safety population
[11] = 600 mg, Study day 31, Safety population
[12] = 600 mg, Study day 33, Safety population
[13] = 600 mg, Study day 42, Safety population
[14] = 600 mg, Study day 60, Safety population
[15] = post-treatment period, 600 mg (N = 47), safety population
[16] = pre-treatment emergent adverse events, 600 mg group (N = 47), safety population

CN1C(=O)[C@@H](NC(=O)c2nnc(Cc3ccccc3)[nH]2)COc2cccnc21 [RIPK1 Inhibitor, (S)-5-benzyl-N-(5-methyl-4-oxo-2,3,4,5-tetrahydropyrido[3,2-b][1,4]oxazepin-3-yl)-4H-1,2,4-triazole-3-carboxamide]
(12.8) %: TEAE, SOC GASTROINTESTINAL DISORDERS: percentage of participants [1] | TEAE, SOC GENERAL DISORDERS AND ADMINISTRATION SITE CONDITIONS: percentage of participants [1] | TEAE, SOC INVESTIGATIONS: percentage of participants [1]
8 serious TEAEs: number of serious TEAEs [3]
(8.5) %: TEAE, SOC INFECTIONS AND INFESTATIONS: percentage of participants [1] | TEAE, SOC RESPIRATORY, THORACIC AND M[…]: percentage of participants [1] | TEAE, PT Condition aggravated: percentage of participants [2]
generally safe and well tolerated: overall safety and tolerability as compared to placebo (daily doses over 15 days, severe COVID-19, with standard of care)
4: TEAE, SOC INFECTIONS AND INFESTATIONS: number of participants [1] | TEAE, SOC RESPIRATORY, THORACIC AND M[…]: number of participants [1] | TEAE, PT Condition aggravated: number of participants [2]
(6.4) %: TEAE, SOC METABOLISM AND NUTRITION DISORDERS: percentage of participants [1] | TEAE, SOC VASCULAR DISORDERS: percentage of participants [1]
1 participant: participants with post-treatment AE leading to death [3]
3: TEAE, SOC METABOLISM AND NUTRITION DISORDERS: number of participants [1] | TEAE, SOC VASCULAR DISORDERS: number of participants [1]
0 n (%): Participants with any post-treatment related to the compound [15] | Participants with any pre-treatment AE leading to death [16]
(2.1) %: TEAE, PT Pulmonary embolism: percentage of participants [1] | TEAE, PT Pyrexia: percentage of participants [1] | TEAE, PT Respiratory disorder: percentage of participants [1] | TEAE, PT Venous thrombosis limb: percentage of participants [1] | TEAE, PT Vessel puncture site phlebitis: percentage of participants [1] | TEAE, SOC BLOOD AND LYMPHATIC SYSTEM DISORDERS: percentage of participants [1] | TEAE, SOC IMMUNE SYSTEM DISORDERS: percentage of participants [1] | TEAE, SOC INJURY, POISONING AND PROCEDURAL COMPLICATIONS: percentage of participants [1] | TEAE, SOC MUSCULOSKELETAL AND CONNECTIVE TISSUE DISORDERS: percentage of participants [1] | TEAE, SOC PSYCHIATRIC DISORDERS: percentage of participants [1]
2 participants: deaths up to Day 28 (600 mg, Safety population (N = 47), on Day 11 and Day 15)
1: TEAE, PT Pyrexia: number of participants [1] | TEAE, PT Respiratory disorder: number of participants [1] | TEAE, PT Venous thrombosis limb: number of participants [1] | TEAE, PT Vessel puncture site phlebitis: number of participants [1] | TEAE, SOC BLOOD AND LYMPHATIC SYSTEM DISORDERS: number of participants [1] | TEAE, SOC IMMUNE SYSTEM DISORDERS: number of participants [1] | TEAE, SOC INJURY, POISONING AND PROCEDURAL COMPLICATIONS: number of participants [1] | TEAE, SOC MUSCULOSKELETAL AND CONNECTIVE TISSUE DISORDERS: number of participants [1] | TEAE, SOC PSYCHIATRIC DISORDERS: number of participants [1] | Number of deaths [5] | Number of deaths [6]
2 (4.3) n (%): Participants with any pre-treatment AE [16]
0 n: participants with AESI, PT Anaemia [3] | participants with AESI, PT Transaminases increased [3] | participants with AESI, SOC BLOOD AND LYMPHATIC SYSTEM DISORDERS [3]
One: participants with post-treatment AESI of transaminase increase (600 mg, abnormal ALT and AST levels) | participants with PCSAs of elevated glucose levels considered as a TEAE of hyperglycemia (600 mg, from an abnormal baseline)
0.02: Cumulative incidence rate of deaths [5]
6 (12.8) n (%): Participants with any post-treatment AE [15]
6: TEAE, SOC GASTROINTESTINAL DISORDERS: number of participants [1] | TEAE, SOC GENERAL DISORDERS AND ADMINISTRATION SITE CONDITIONS: number of participants [1] | TEAE, SOC INVESTIGATIONS: number of participants [1]
4.3%: deaths up to Day 28 [3]
1 (2.1) n (%): Participants with any post-treatment AE leading to death [15] | Participants with any post-treatment SAE [15] | Participants with severe post-treatment AE [15] | Participants with any pre-treatment SAE [16] | Participants with severe pre-treatment AE [16]
0.04: Cumulative incidence rate of deaths [6] | Cumulative incidence rate of deaths [7] | Cumulative incidence rate of deaths [8] | Cumulative incidence rate of deaths [9] | Cumulative incidence rate of deaths [10] | Cumulative incidence rate of deaths [11] | Cumulative incidence rate of deaths [12] | Cumulative incidence rate of deaths [13] | Cumulative incidence rate of deaths [14]
0: TEAE, PT Renal cyst: number of participants [1] | TEAE, PT Renal impairment: number of participants [1] | TEAE, PT Respiratory failure: number of participants [1] | TEAE, PT Subcutaneous emphysema: number of participants [1] | TEAE, PT Tachycardia paroxysmal: number of participants [1] | TEAE, PT Tracheitis: number of participants [1] | TEAE, PT Tracheobronchitis: number of participants [1] | TEAE, PT Transaminases increased: number of participants [1] | TEAE, PT Vomiting: number of participants [1] | TEAE, SOC CARDIAC DISORDERS: number of participants [1] | TEAE, SOC HEPATOBILIARY DISORDERS: number of participants [1] | TEAE, SOC NERVOUS SYSTEM DISORDERS: number of participants [1] | TEAE, SOC RENAL AND URINARY DISORDERS: number of participants [1] | TEAE, SOC REPRODUCTIVE SYSTEM AND BREAST DISORDERS: number of participants [1] | TEAE, SOC SKIN AND SUBCUTANEOUS TISSUE DISORDERS: number of participants [1] | Cumulative incidence rate of deaths [4] | Number of deaths [4] | Number of deaths [7] | Number of deaths [8] | Number of deaths [9] | Number of deaths [10] | Number of deaths [11] | Number of deaths [12] | Number of deaths [13] | Number of deaths [14]
6 AESIs: number of AESIs [3]
5 TEAEs: number of TEAEs leading to treatment discontinuation [3]
2 TEAEs: number of TEAEs considered as IMP-related by the Investigator [3]
